According to patent US20210317505A1, “IMPROVED DETECTION OF ANTICOAGULANTS IN BODY FLUIDS” (DOASENSE GmbH, priority 2017, published 2021):
Where “and” joins values, the source holds several entries; their conditions need not be identical. Identical values can stand only once. Like-named read-outs stand apart in the source and are kept apart here.

Target: factor Xa (Homo sapiens, UniProt P00742)
Conditions: for difference in reflectance units for the minimum and maximum concentration: 0 ng/mL vs. 1500 ng/mL, native urine; for intensity, mean, Laura Smart No. 1 / intensity, mean, Laura Smart No. 2 / intensity, mean, Laura Smart No. 3 / intensity, mean, all readers / intensity, single, Laura Smart No. 1 / intensity, single, Laura Smart No. 2 / intensity, single, Laura Smart No. 3: 380 nm
From the text: Using a modified reflectance photometer, hereinafter also referred to as reader (Laura Smart (LS), ERBA Lachema), native urine samples were investigated using excitation light having either a wavelength of 380 nm or a wavelength of 470 nm. Herein, the samples under investigation contained the direct factor Xa inhibitor rivaroxaban or the direct thrombin inhibitor dabigatran. For each anticoagulant, samples with different concentrations were provided.
Test strips were used on which both the blood clotting factor (factor Xa or thrombin) and the respective chromogenic substrate conjugated to a detectable substance were immobilized, i.e. N-benzoyl-L-isoleucyl-L-glutamyl-L-glycyl-L-arginine-para-nitroaniline (SEQ ID NO:1) together with factor Xa, and N-(para-tosyl)-glycyl-L-prolyl-L-arginine-para-nitroanilide acetate together with thrombin. After dipping the test strip into the urine sample to be investigated for 2 to 3 seconds, incubation was allowed for 10 min. Then, the test strip was inserted into the reader. In total, three different readers (“Laura No. 1”, “Laura No. 2”, and “Laura No. 3”) were used in order to check for any device-specific issues.
In order to suppress fluorescence light which might originate from the released detestable substance (para-nitroaniline), a UV band-pass filter was used made of UG11 glass (Schott AG).
For each single measurement, an intensity value was put out by the respective reader, given in reflectance units (% REM). Each of the readers was able to split up the measured intensity into 1000 increments.
Generally, the higher the concentration of the anticoagulant in the sample, the less detectable substance is released from the chromogenic substrate by the corresponding blood dotting factor. Accordingly, in case of a high concentration of the anticoagulant, the absorption by the sample is low while the reflectance by the sample is high. In order to reliably evaluate the presence or absence of the anticoagulant in the sample, as a general rule, a low concentration of the anticoagulant in the sample should result in a % REM value as low as possible, while a high concentration of the anticoagulant in the sample should result in a % REM value as high as possible. In other words, the difference in reflectance units for the minimum and maximum concentration of the anticoagulant should be as large as possible.

[1] = rivaroxaban 100 ng/mL in native urine
[2] = rivaroxaban 200 ng/mL in native urine
[3] = rivaroxaban 400 ng/mL in native urine
[4] = rivaroxaban 1500 ng/mL in native urine

factor Xa, sequence (P00742 235-488 limits assumed): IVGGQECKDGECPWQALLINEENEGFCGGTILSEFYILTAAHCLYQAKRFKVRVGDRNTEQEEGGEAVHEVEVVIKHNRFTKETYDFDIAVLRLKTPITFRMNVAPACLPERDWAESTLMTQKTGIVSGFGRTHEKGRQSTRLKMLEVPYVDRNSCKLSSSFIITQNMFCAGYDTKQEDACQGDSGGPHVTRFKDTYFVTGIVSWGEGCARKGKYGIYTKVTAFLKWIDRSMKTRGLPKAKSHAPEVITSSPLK
factor Xa, sequence (P00742 41-179 partner limits assumed): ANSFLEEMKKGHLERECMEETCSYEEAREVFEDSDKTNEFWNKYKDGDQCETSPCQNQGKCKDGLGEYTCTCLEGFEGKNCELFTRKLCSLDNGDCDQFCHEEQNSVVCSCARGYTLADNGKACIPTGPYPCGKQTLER

O=C(NC[C@H]1CN(c2ccc(N3CCOCC3=O)cc2)C(=O)O1)c1ccc(Cl)s1 [rivaroxaban]
difference in reflectance units for the minimum and maximum concentration (excitation light 380 nm): about 400 % REM
difference in reflectance units for the minimum and maximum concentration (excitation light 470 nm): about 200 % REM
change of the measured intensity with concentration (dark urine samples, excitation light 380 nm): possible to observe a change of the measured intensity with the concentration
intensity, mean, Laura Smart No. 1 [1]: 181 % REM
intensity, mean, Laura Smart No. 2 [1]: 194 % REM
intensity, mean, Laura Smart No. 3 [1]: 199 % REM
intensity, mean, all readers [1]: 191 % REM
intensity, single, Laura Smart No. 1 [1]: 192 % REM and 159 % REM and 193 % REM
intensity, single, Laura Smart No. 2 [1]: 194 % REM and 191 % REM and 196 % REM
intensity, single, Laura Smart No. 3 [1]: 202 % REM and 196 % REM and 199 % REM
intensity, mean, Laura Smart No. 1 [2]: 276 % REM
intensity, mean, Laura Smart No. 2 [2]: 266 % REM
intensity, mean, Laura Smart No. 3 [2]: 315 % REM
intensity, mean, all readers [2]: 286 % REM
intensity, single, Laura Smart No. 1 [2]: 254 % REM and 336 % REM and 238 % REM
intensity, single, Laura Smart No. 2 [2]: 279 % REM and 265 % REM and 253 % REM
intensity, single, Laura Smart No. 3 [2]: 304 % REM and 342 % REM and 299 % REM
intensity, mean, Laura Smart No. 1 [3]: 387 % REM
intensity, mean, Laura Smart No. 2 [3]: 425 % REM
intensity, mean, Laura Smart No. 3 [3]: 387 % REM
intensity, mean, all readers [3]: 400 % REM
intensity, single, Laura Smart No. 1 [3]: 346 % REM and 406 % REM and 409 % REM
intensity, single, Laura Smart No. 2 [3]: 431 % REM and 413 % REM
intensity, single, Laura Smart No. 3 [3]: 423 % REM and 411 % REM and 326 % REM
intensity, mean, Laura Smart No. 1 [4]: 542 % REM
intensity, mean, Laura Smart No. 2 [4]: 518 % REM
intensity, mean, Laura Smart No. 3 [4]: 496 % REM
intensity, mean, all readers [4]: 519 % REM
intensity, single, Laura Smart No. 1 [4]: 537 % REM and 528 % REM and 560 % REM
intensity, single, Laura Smart No. 2 [4]: 588 % REM and 468 % REM and 499 % REM
intensity, single, Laura Smart No. 3 [4]: 501 % REM and 510 % REM and 476 % REM
